Laboratory results from patent US11166972B2, “Compositions comprising nicotinamide riboside and a urolithin” (Amazentis SA, priority 2015, dated 2021).

Test system: mitochondrial respiratory subunits proteins in C2C12 myoblasts
Test: Western blot of mitochondrial respiratory subunits proteins in C2C12 myoblasts (Example 6)
Assay type: cell-based
Settings: 48 hours
Experimental: C2C12 myoblasts were cultured in Dulbecco's modified Eagle's medium (DMEM) including 4.5 g/L glucose, 10% fetal calf serum, and 50 μg/mL gentamicin. Urolithin A (UA) was dissolved in DMSO in a stock solution of 50 mM. Nicotinamide riboside (NR) in the form of the triflate salt was dissolved in double-distilled water in a stock solution of 1 M. One hundred thousand cells were plated at time 0 hours in 6-wells plates. A total of 3 wells was used per condition (n=3 per group). Cells were treated in a volume of 2 ml for a period of 48 hours at final concentrations of (a) DMSO 0.1%, (b) 25 μM UA, (c) 0.1 mM NR, (d) 1 mM NR, (e) 25 μM UA+0.1 mM NR and (f) 25 μM UA+1 mM NR. At the end of the treatment, cells were lysed with cell lysis buffer (#9803, Cell signalling) containing protease (cOmplete™, Roche) and phosphatase inhibitor (PhosSTOP™, Roche) and applied to Invitrogen NuPage® Novex® Gel System (Bis-Tris Protein Gels −4-12%, Thermo fisher Scientific). Protein levels were examined for mitochondrial respiratory subunits, including mitochondrially encoded cytochrome c oxidase I (MTCO1), succinate dehydrogenase complex flavoprotein subunit A (SDHA) and B (SDHB), ubiquinol-cytochrome c reductase core protein II (UQCRC2) and ATP synthase, H+ transporting, mitochondrial F1 complex, alpha subunit 1 (ATP5A). The housekeeping protein tubulin-α was measured as a loading control. Detection of the proteins was performed using an Azure c300 (Azure biosystem) (FIG. 1B). Western Blot images were representative of the three biological replicates. Experiments were repeated at least 2 times. Bands were quantified using ImageJ software. The heatmap of the band intensities was drawn using GEN-E (Broad Institute) conditional formatting. Control DMSO values were set to one (FIG. 1A).

| Compound | ATP5A protein level, change vs DMSO control (UA 25 μM alone) | MT-CO1 protein level, change vs DMSO control (UA 25 μM alone, increase) | SDHA protein level, change vs DMSO control (UA 25 μM alone, increase) | SDHB protein level, change vs DMSO control (UA 25 μM alone, increase) | UQCRC2 protein level, change vs DMSO control (UA 25 μM alone, increase) | ATP5A protein level, change vs DMSO control (NR 0.1 mM) | SDHB protein level, change vs DMSO control (NR 0.1 mM) | MT-CO1 protein level, change vs DMSO control (NR 0.1 mM, decrease (printed −≈10%)) | SDHA protein level, change vs DMSO control (NR 0.1 mM, increase) | UQCRC2 protein level, change vs DMSO control (NR 0.1 mM, increase (+≈)) | SDHB protein level, change vs DMSO control (NR 1 mM) | ATP5A protein level, decrease vs DMSO control (NR 1 mM, decrease) [%] | MT-CO1 protein level, change vs DMSO control (NR 1 mM, decrease (printed −≈10%)) | SDHA protein level, change vs DMSO control (NR 1 mM, increase) | UQCRC2 protein level, change vs DMSO control (NR 1 mM, increase (+≈)) |
| --- | --- | --- | --- | --- | --- | --- | --- | --- | --- | --- | --- | --- | --- | --- | --- |
| O=c1oc2cc(O)ccc2c2ccc(O)cc12 [UA, Urolithin A] | no change | +14% | +54% | +10% | +26% | – | – | – | – | – | – | – | – | – | – |
| Nicotinamide riboside [NR] | – | – | – | – | – | no effect | no change | ≈ 10% | ≈ 100% | ≈ 10% | no change | 20 | ≈ 10% | ≈ 100% | ≈ 10% |
